Data: patent US7462598B2, “Antimicrobial theta defensins, analogs thereof, and methods of use” (priority 2002, dated 2008)
Bridge positions count the residues as written; N and C are the ends. Square brackets hold non-standard residues; d marks the D form. Peptide text beside a SMILES is read from it. hSer = N[C@@H](CCO)C(=O)O

How the values were obtained:
[1] = test system: S. aureus 502a, E. coli ML35, C. albicans 16820, and C. neoformans 271a; assay: Agar diffusion assay, statements across the test organisms; format: cell-based; details: against E. coli, FIG. 18A-D
Description: Briefly, 10-μl wells were bored in a 9-cm^2 plate of agarose, buffered with 10 mM 1,4-piperazinebis(ethanesulfonic acid) (PIPES), pH 7.4, containing 5 mM glucose, and seeded with 1×10^6 mid-log phase cells. Five-μl aliquots of peptides, dissolved in 0.01% HOAc at 10-300 μg/ml, were added to each well. After incubation at 37° C. for 2 h, the seeded agar was overlaid with molten agarose containing 6% trypticase soy broth (for bacteria) or Sabouraud dextrose broth (for fungi). Plates were incubated at 37° C. for 18-24 h, and antimicrobial activity was determined by measuring the diameter of clearing around each well.

S. aureus 502a [2] = assay: Cell-suspension microbicidal assay (MMC); format: cell-based, Staphylococcus aureus; details: for MMC, S. aureus: lowest concentration that reduced cell viability by 99.9%, 10 mM PIPES, 5 mM glucose, pH 7.4, 2 h 37° C.
Outline: (§1)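 Log-phase microbes (2×10^6 CFU/ml) exposed to two-fold peptide dilutions (0.062-8.0 μg/ml) in 10 mM PIPES, 5 mM glucose, pH 7.4, 2 h at 37 °C, then diluted 1:10 to 1:10^6 in broth and grown 24-48 h. MMC is the lowest concentration giving ≥99.9% killing (no pellet at 1:10^3).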

E. coli ML35 [3] = assay: Cell-suspension microbicidal assay (MMC); format: cell-based, Escherichia coli; details: for MMC, E. coli: lowest concentration that reduced cell viability by 99.9%, 10 mM PIPES, 5 mM glucose, pH 7.4, 2 h 37° C.
Outline: as §1

C. albicans 16820 = assay: Cell-suspension microbicidal assay (MMC); format: cell-based, Candida albicans; details: for MMC, C. albicans: lowest concentration that reduced cell viability by 99.9%, 10 mM PIPES, 5 mM glucose, pH 7.4, 2 h 37° C.
Outline: as §1

[4] = test system: S. aureus 502a, E. coli ML35, and C. albicans 16820; assay: Cell-suspension microbicidal assay, statements across the test organisms (lowest MMC, overall ranges); format: cell-based; details: for M: peptide concentration that kill 99.9% of either S. aureus, E. coli, or C. albicans, lowest MMC value
Outline: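 Log-phase organisms (2×10^6 CFU/ml) were exposed for 2 h at 37° C. to peptide (0.062–8.0 μg/ml final) in 10 mM PIPES/5 mM glucose, pH 7.4, then serially diluted in broth and grown 24–48 h. MMC was defined as ≥99.9% killing (no pellet at 1:10^3). SI was calculated as concentration giving 3% hemolysis in PBS divided by lowest MMC.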

S. aureus 502a [5] = format: cell-based, Staphylococcus aureus; details: 502a
Description: Dose-dependent staphylocidal activity of each peptide was determined in assays containing 10% normal human serum. Percentages of killing are relative to activities of peptide-containing incubations in which serum was omitted.
(§2) To determine the effects of serum, salt, calcium chloride and magnesium chloride on microbicidal activities, peptide activities were determined in assays containing varying ionic strength, divalent cations, and serum. The effect of serum on staphylocidal activity of each peptide was determined by incubating 1×10^6 CFU/ml of S. aureus 502a with increasing peptide concentrations (0.5-4 μg/ml) in 10 mM PIPES, pH 7.4, containing 10% normal human serum for 2 h at 37° C. The effect of sodium chloride on staphylocidal activities was assessed with 5 μg/ml of each peptide in 10 mM PIPES, pH 7.4, containing varying concentrations of sodium chloride (0-160 mM). Effects of divalent cations, CaCl2, or MgCl2 (0-5.6 mM) were assessed in microbicidal assays against E. coli ML35. Bactericidal activities were determined by colony counting (see Example II), and microbicidal potencies were expressed as percent killing as follows:
(§3) [formula] where A=surviving bacteria (CFU/ml) after initial incubation with each peptide in buffer containing serum, salt, or divalent cations and Ao=bacterial CFU/ml in the “no-peptide” controls.

E. coli ML35 [6] = assay: Bactericidal activity in divalent cations (CaCl2, MgCl2); format: cell-based, Escherichia coli
Description: as §2, §3

E. coli ML35 [7] = assay: Membrane permeabilization assay (ONPG hydrolysis); format: cell-based, Escherichia coli; details: for ONPG hydrolysis: rates at 1 μg/ml concentration of each peptide
Outline: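 ONPG hydrolysis by log-phase E. coli ML35 (1×10^6 CFU/ml) in 10 mM PIPES pH 7.4 with 3 mM ONPG, peptides at 0-8.0 μg/ml final; A405 followed for 60 min. Control: 0-4 μg/ml peptide incubated with recombinant β-galactosidase and 3 mM ONPG.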

S. aureus 502a [8] = format: cell-based, Staphylococcus aureus; details: physiologic salt / various concentrations of salt; FIG. 6
Description: The activity of each peptide (5 μg/ml) was determined in assays containing increasing concentrations of sodium chloride. Staphylocidal activities were expressed as percentages of killing obtained in the absence of additional NaCl.
as §2, §3

[9] = biological target: T1, recombinant β-galactosidase (Escherichia coli, UniProt P00722); assay: Inhibition of purified β-galactosidase (ONPG hydrolysis); format: biochemical
T1 construct: gift from Dr. Donald P. Satchell, University of California, Irvine, Department of Pathology
Description: Dose-dependent rates of ONPG hydrolysis were determined using 10 nM of purified β-galactosidase.
The effect of each peptide on β-galactosidase-dependent ONPG hydrolysis was determined by incubating 0-4 μg/ml of each peptide with recombinant β-galactosidase (a gift from Dr. Donald P. Satchell, University of California, Irvine, Department of Pathology) and 3 mM ONPG as described above.

T1 sequence (P00722 2-1024): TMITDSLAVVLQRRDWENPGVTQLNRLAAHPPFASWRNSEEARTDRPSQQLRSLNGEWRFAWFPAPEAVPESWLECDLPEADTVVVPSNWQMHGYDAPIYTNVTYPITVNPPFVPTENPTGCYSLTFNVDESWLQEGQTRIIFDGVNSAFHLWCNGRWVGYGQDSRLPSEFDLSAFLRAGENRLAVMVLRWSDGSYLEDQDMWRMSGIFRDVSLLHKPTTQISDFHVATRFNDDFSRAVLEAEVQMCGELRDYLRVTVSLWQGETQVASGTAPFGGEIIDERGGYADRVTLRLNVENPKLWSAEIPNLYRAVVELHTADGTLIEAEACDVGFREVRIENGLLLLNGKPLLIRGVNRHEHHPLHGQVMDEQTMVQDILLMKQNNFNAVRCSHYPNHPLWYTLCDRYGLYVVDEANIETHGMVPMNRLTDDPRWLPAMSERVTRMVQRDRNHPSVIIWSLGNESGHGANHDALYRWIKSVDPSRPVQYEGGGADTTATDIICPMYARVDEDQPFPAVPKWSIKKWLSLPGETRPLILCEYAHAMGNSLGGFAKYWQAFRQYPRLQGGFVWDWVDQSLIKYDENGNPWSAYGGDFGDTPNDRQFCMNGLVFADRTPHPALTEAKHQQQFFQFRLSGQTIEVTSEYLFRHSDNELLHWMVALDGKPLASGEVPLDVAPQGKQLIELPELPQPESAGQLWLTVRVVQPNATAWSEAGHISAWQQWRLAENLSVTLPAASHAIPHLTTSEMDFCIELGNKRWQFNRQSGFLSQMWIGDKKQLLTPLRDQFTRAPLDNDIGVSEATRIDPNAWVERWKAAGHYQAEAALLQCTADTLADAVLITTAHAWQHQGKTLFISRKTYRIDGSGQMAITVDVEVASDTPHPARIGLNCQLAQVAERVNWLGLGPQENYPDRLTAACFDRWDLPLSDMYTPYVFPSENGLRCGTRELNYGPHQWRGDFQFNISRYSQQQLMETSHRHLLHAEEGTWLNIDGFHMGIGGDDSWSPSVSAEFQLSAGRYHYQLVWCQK

SMILES	antimicrobial activity compared with synthetic / native RTD-1 [1]	MMC, S. aureus (S. aureus 502a [2]) [µg/mL]	MMC, C. albicans (C. albicans 16820) [µg/mL]	M [4] [µg/mL]	ONPG hydrolysis (E. coli ML35 [7])	MMC, E. coli (E. coli ML35 [3]) [µg/mL]	other results
CC[C@H](C)[C@@H]1NC(=O)[C@@H]2CSSC[C@H](NC(=O)[C@H](CCCNC(=N)N)NC(=O)[C@@H](NC(=O)[C@H](Cc3ccccc3)NC(=O)CN)CSSC[C@@H](C(=O)N[C@H](C(=O)N[C@@H](CCCNC(=N)N)C(=O)N[C@@H](CCO)C(=O)O)[C@@H](C)O)NC1=O)C(=O)N[C@@H](CC(C)C)C(=O)N[C@H]1CSSC[C@H](NC(=O)[C@H](C(C)C)NC(=O)CNC(=O)[C@H](CCCNC(=N)N)NC(=O)[C@H](CCCNC(=N)N)NC1=O)C(=O)N[C@@H](CCCNC(=N)N)C(=O)N2 [aRTD-1-Hse] (H-GFCRCLCRRGVCRCICTR[hSer]-OH; disulfide 3-16, 5-14, 7-12 (inferred); N-terminus and C-terminus assumed)	more antimicrobial than native RTD-1						
CC(C)C[C@H](NC(=O)[C@@H]1CSSC[C@H](NC(=O)[C@H](CCCNC(=N)N)NC(=O)[C@H](C)NC(=O)[C@@H](NC(=O)CNC(=O)[C@@H](N)CCCNC(=N)N)C(C)C)C(=O)N[C@@H](CC(C)C)C(=O)N[C@H]2CSSC[C@H](NC(=O)[C@H](C(C)C)NC(=O)CNC(=O)[C@H](CCCNC(=N)N)NC(=O)[C@H](CCCNC(=N)N)NC2=O)C(=O)N[C@@H](CCCNC(=N)N)C(=O)N1)C(=O)N[C@@H](C)C(=O)N[C@@H](CCCNC(=N)N)C(N)=O [5:3 aRTD-3-NH] (H-RGVARCLCRRGVCRCLAR-NH2; disulfide 6-15, 8-13; N-terminus assumed)		1.0	2.3	1	3.9 (A405/sec) · 10^−5		fold lower activity against E. coli than RTD-3 and PG-1 (E. coli ML35 [3]; from MMC, Table 2): 2-3 fold; fold lower activity against C. albicans than RTD-3 and PG-1 (C. albicans 16820; from MMC, Table 2): 2-3 fold; inhibition of bactericidal activity in serum (S. aureus 502a [5]): 20-50%; effect of divalent cations on bactericidal activity (in words) (E. coli ML35 [6]; various concentrations of divalent cations): completely inhibited
CC[C@H](C)[C@@H]1NC(=O)[C@@H]2CSSC[C@H](NC(=O)[C@H](CCCNC(=N)N)NC(=O)[C@@H](NC(=O)[C@H](Cc3ccccc3)NC(=O)CN)CSSC[C@@H](C(=O)N[C@H](C(=O)N[C@@H](CCCNC(=N)N)C(=O)O)[C@@H](C)O)NC1=O)C(=O)N[C@@H]([C@@H](C)CC)C(=O)N[C@H]1CSSC[C@H](NC(=O)[C@H](Cc3ccccc3)NC(=O)CNC(=O)[C@H](CCCNC(=N)N)NC(=O)[C@H]([C@@H](C)O)NC1=O)C(=O)N[C@@H](CCCNC(=N)N)C(=O)N2 [aRTD-2-OH] (H-GFCRCICTRGFCRCICTR-OH; disulfide 3-16, 5-14, 7-12; N-terminus assumed)		1.5	3.0	1.5	4.3 (A405/sec) · 10^−5		fold reduction of potency against E. coli versus native cyclic peptide (E. coli ML35 [3]; versus RTD-2): at least 3 fold; 99.9% kill against one of the bacterial organisms ([4]; at 8 μg/ml, the highest concentration tested): did not achieve a 99.9% kill; effect of salt on microbicidal activity (in words) (S. aureus 502a [8]): most inhibited; inhibition of bactericidal activity by calcium chloride (E. coli ML35 [6]; physiologic concentration of calcium chloride (1.4 mM)): completely ablated
CC(C)[C@@H]1NC(=O)[C@@H]2CSSC[C@H](NC(=O)[C@H](CCCNC(=N)N)NC(=O)[C@@H](NC(=O)CNC(=O)CN)CSSC[C@@H](C(=O)N[C@@H](CCCNC(=N)N)C(=O)N[C@@H](CCCNC(=N)N)C(N)=O)NC1=O)C(=O)N[C@@H](Cc1ccc(O)cc1)C(=O)N[C@H]1CSSC[C@H](NC(=O)[C@H](Cc3ccccc3)NC(=O)[C@H](CCCNC(=N)N)NC(=O)[C@H](CCCNC(=N)N)NC(=O)[C@H](CCCNC(=N)N)NC1=O)C(=O)N[C@@H](C(C)C)C(=O)N2 [3cys 2:2 PG-1-NH] (H-GGCRCYCRRRFCVCVCRR-NH2; disulfide 3-16, 5-14, 7-12; N-terminus assumed)		0.3	1.5	0.25	15.3 (A405/sec) · 10^−5	1.0	fold higher activity against S. aureus than 3cys 3:1 PG-1-NH (S. aureus 502a [2]; from MMC, Table 2): 6-7 fold; fold higher activity against C. albicans than 3cys 3:1 PG-1-NH (C. albicans 16820; from MMC, Table 2): 2-3 fold; inhibition of β-galactosidase activity ([9]; peptide 0-4 μg/ml, concentration not given, FIG. 10): potent inhibitor
CC[C@H](C)[C@@H]1NC(=O)[C@@H]2CSSC[C@H](NC(=O)[C@H](CCCNC(=N)N)NC(=O)[C@@H]3CSSC[C@H](NC1=O)C(=O)N[C@@H]([C@@H](C)O)C(=O)N[C@@H](CCCNC(=N)N)C(=O)NCC(=O)N[C@@H](Cc1ccccc1)C(=O)N3)C(=O)N[C@@H](CC(C)C)C(=O)N[C@H]1CSSC[C@H](NC(=O)[C@H](C(C)C)NC(=O)CNC(=O)[C@H](CCCNC(=N)N)NC(=O)[C@H](CCCNC(=N)N)NC1=O)C(=O)N[C@@H](CCCNC(=N)N)C(=O)N2 [recombinant RTD-1] (cyclo(GFCRCLCRRGVCRCICTR); disulfide 3-16, 5-14, 7-12)	virtually indistinguishable						
CC[C@H](C)[C@@H]1NC(=O)[C@@H]2CSSC[C@H](NC(=O)[C@H](CCCNC(=N)N)NC(=O)[C@@H]3CSSC[C@H](NC1=O)C(=O)N[C@@H]([C@@H](C)O)C(=O)N[C@@H](CCCNC(=N)N)C(=O)NCC(=O)N[C@@H](Cc1ccccc1)C(=O)N3)C(=O)N[C@@H]([C@@H](C)CC)C(=O)N[C@H]1CSSC[C@H](NC(=O)[C@H](Cc3ccccc3)NC(=O)CNC(=O)[C@H](CCCNC(=N)N)NC(=O)[C@H]([C@@H](C)O)NC1=O)C(=O)N[C@@H](CCCNC(=N)N)C(=O)N2 [RTD-2] (cyclo(CICTRGFCRCICTRGFCR); disulfide 1-10, 3-8, 12-17)		1.5	3.0	1.5	6.3 (A405/sec) · 10^−5	2.3	reduction of the rate of ONPG hydrolysis on addition of RTD-2 (E. coli ML35 [7]; RTD-2 1.0 μg/ml final added after 30 min to E. coli permeabilized with 1 μg/ml RTD-1, FIG. 11B): approximately 30%; reduction of the rate of ONPG hydrolysis by purified β-galactosidase ([9]; 2 μg/ml, relative to incubations without peptide): 80%
